The values that follow come from paper PMC4745691, “New therapeutic strategies in neuroblastoma: combined targeting of a novel tyrosine kinase inhibitor and liposomal siRNAs against ALK” (Oncotarget, 2015).

The nature of the series: Tolerability in subcutaneous NB model (MTD, adverse effects, body weight). The following applies: 50 mg/kg BID oral gavage, NB-bearing mice. Format: in vivo. As for the experimental part:
In other set of experiments, Balb/c nude mice were xenografted with SH-SY5Y cells as earlier. […] Tumors were measured twice weekly using callipers, and volume was calculated using the formula: Length × Width^2 × 0.5. Body weight was also assessed twice weekly. The experiment was terminated after 3 weeks of treatment.

Turning to `C[C@@H](Oc1cc(-c2cnn(C3CCNCC3)c2)cnc1N)c1c(Cl)ccc(F)c1Cl` [crizotinib, Crizotinib], the “mice weight over time” value was “No signs of severe weight”.
